# Laboratory results as given in patent US20230372498A1, “PLK1 SELECTIVE DEGRADATION INDUCING COMPOUND” (UPPTHERA, priority 2020, published 2023).
# Biological target: T1, PLK1 (Homo sapiens, UniProt P53350)
# T1 construct: endogenous in cells; host or cells: HeLa
# Assay: PLK1 protein degradation in HeLa cells, Western blotting (PLK1/GAPDH ratio)
# Type: cell-based
# Conditions: 6 hours compound incubation; for DC50: measured only if the grade of Dmax is A or B; for Dmax: thymidine block and release, 10 points three-fold from 3 μM, PLK1 to GAPDH ratio, read-out: Dmax
# In short: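 PLK1 level measured by Western blot as PLK1/GAPDH in HeLa lysates (15 μg protein per lane). Cells were blocked with 2 mM thymidine 24 h, released 4 h, and exposed 6 h to compound, 10 concentrations, 3-fold steps, top 3 μM.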
# T1 sequence (P53350 whole entry): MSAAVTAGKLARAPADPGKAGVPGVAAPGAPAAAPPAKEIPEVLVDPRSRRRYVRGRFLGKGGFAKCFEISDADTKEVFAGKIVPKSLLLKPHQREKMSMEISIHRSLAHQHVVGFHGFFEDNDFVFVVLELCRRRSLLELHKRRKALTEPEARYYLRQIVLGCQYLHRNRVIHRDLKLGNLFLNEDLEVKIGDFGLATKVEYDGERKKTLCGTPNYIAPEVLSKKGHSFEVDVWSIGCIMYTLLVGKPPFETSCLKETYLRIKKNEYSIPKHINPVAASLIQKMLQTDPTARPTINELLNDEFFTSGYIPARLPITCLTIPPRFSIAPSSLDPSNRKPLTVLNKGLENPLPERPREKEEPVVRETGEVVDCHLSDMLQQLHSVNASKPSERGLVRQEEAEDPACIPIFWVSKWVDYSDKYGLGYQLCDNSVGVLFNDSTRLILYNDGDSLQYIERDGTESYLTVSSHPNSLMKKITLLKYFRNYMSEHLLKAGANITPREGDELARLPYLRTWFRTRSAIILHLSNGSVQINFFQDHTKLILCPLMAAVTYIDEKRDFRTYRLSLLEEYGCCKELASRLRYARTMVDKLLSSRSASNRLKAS
SMILES,DC50 [nM],Dmax [%]
"COc1cc(C(=O)N[C@H]2CCN(C(=O)CCC(=O)N3CCN(c4ccc5c(c4)C(=O)N(C4CCC(=O)NC4=O)C5=O)CC3)C2)ccc1Nc1ncc2c(n1)N(C1CCCC1)CC(F)(F)C(=O)N2C (stereo partly drawn) [Compound 145, 4-((9-cyclopentyl-7,7-difluoro-5-methyl-6-oxo-6,7,8,9-tetrahydro-5H-pyrimido[4,5-b][1,4]diazepin-2-yl)amino)-N-((3S)-1-(4-(4-(2-(2,6-dioxopiperidin-3-yl)-1,3-dioxoisoindolin-5-yl)piperazin-1-yl)-4-oxobutanoyl)pyrrolidin-3-yl)-3-methoxybenzamide]",> 500,60 to 80
"CN1C(=O)C(F)(F)CN(C2CCCC2)c2nc(Nc3ccc(C(=O)N[C@H]4CCN(C(=O)CCC(=O)N5CCN(c6ccc7c(c6)C(=O)N(C6CCC(=O)NC6=O)C7=O)CC5)C4)cc3)ncc21 (stereo partly drawn) [Compound 146, 4-((9-cyclopentyl-7,7-difluoro-5-methyl-6-oxo-6,7,8,9-tetrahydro-5H-pyrimido[4,5-b][1,4]diazepin-2-yl)amino)-N-((3S)-1-(4-(4-(2-(2,6-dioxopiperidin-3-yl)-1,3-dioxoisoindolin-5-yl)piperazin-1-yl)-4-oxobutanoyl)pyrrolidin-3-yl)benzamide]",–,< 60
"COc1cc(C(=O)N[C@H]2CCN(C(=O)CCCC(=O)N3CCN(c4ccc5c(c4)C(=O)N(C4CCC(=O)NC4=O)C5=O)CC3)C2)c(F)cc1Nc1ncc2c(n1)N(C1CCCC1)CC(F)(F)C(=O)N2C (stereo partly drawn) [Compound 147, 4-((9-cyclopentyl-7,7-difluoro-5-methyl-6-oxo-6,7,8,9-tetrahydro-5H-pyrimido[4,5-b][1,4]diazepin-2-yl)amino)-N-((3S)-1-(5-(4-(2-(2,6-dioxopiperidin-3-yl)-1,3-dioxoisoindolin-5-yl)piperazin-1-yl)-5-oxopentanoyl)pyrrolidin-3-yl)-2-fluoro-5-methoxybenzamide]",≤ 500,60 to 80
"COc1cc(C(=O)N[C@H]2CCN(C(=O)CCC(=O)N3CC4(C3)CN(c3cccc5c3C(=O)N(C3CCC(=O)NC3=O)C5=O)C4)C2)c(F)cc1Nc1ncc2c(n1)N(C1CCCC1)CC(F)(F)C(=O)N2C (stereo partly drawn) [Compound 148, 4-((9-cyclopentyl-7,7-difluoro-5-methyl-6-oxo-6,7,8,9-tetrahydro-5H-pyrimido[4,5-b][1,4]diazepin-2-yl)amino)-N-((3S)-1-(4-(6-(2-(2,6-dioxopiperidin-3-yl)-1,3-dioxoisoindolin-4-yl)-2,6-diazaspiro[3.3]heptan-2-yl)-4-oxobutanoyl)pyrrolidin-3-yl)-2-fluoro-5-methoxybenzamide]",≤ 50,≥ 80
"COc1cc(C(=O)N[C@H]2CCN(C(=O)CCCC(=O)N3CC4(C3)CN(c3cccc5c3C(=O)N(C3CCC(=O)NC3=O)C5=O)C4)C2)c(F)cc1Nc1ncc2c(n1)N(C1CCCC1)CC(F)(F)C(=O)N2C (stereo partly drawn) [Compound 149, 4-((9-cyclopentyl-7,7-difluoro-5-methyl-6-oxo-6,7,8,9-tetrahydro-5H-pyrimido[4,5-b][1,4]diazepin-2-yl)amino)-N-((3S)-1-(5-(6-(2-(2,6-dioxopiperidin-3-yl)-1,3-dioxoisoindolin-4-yl)-2,6-diazaspiro[3.3]heptan-2-yl)-5-oxopentanoyl)pyrrolidin-3-yl)-2-fluoro-5-methoxybenzamide]",≤ 500,60 to 80
"COc1cc(C(=O)NC2CCN(C(=O)COCCOCCNc3cccc4c3CN(C3CCC(=O)NC3=O)C4=O)C2)c(F)cc1Nc1ncc2c(n1)N(C1CCCC1)CC(F)(F)C(=O)N2C (stereo not drawn) [Compound 150, 4-((9-cyclopentyl-7,7-difluoro-5-methyl-6-oxo-6,7,8,9-tetrahydro-5H-pyrimido[4,5-b][1,4]diazepin-2-yl)amino)-N-(1-(2-(2-(2-((2-(2,6-dioxopiperidin-3-yl)-1-oxoisoindolin-4-yl)amino)ethoxy)ethoxy)acetyl)pyrrolidin-3-yl)-2-fluoro-5-methoxybenzamide]",≤ 50,≥ 80
"COc1cc(C(=O)NCCOCCNc2cccc3c2C(=O)N(C2CCC(=O)NC2=O)C3=O)c(F)cc1Nc1ncc2c(n1)N(C1CCCC1)CC(F)(F)C(=O)N2C (stereo not drawn) [Compound 151, 4-((9-cyclopentyl-7,7-difluoro-5-methyl-6-oxo-6,7,8,9-tetrahydro-5H-pyrimido[4,5-b][1,4]diazepin-2-yl)amino)-N-(2-(2-((2-(2,6-dioxopiperidin-3-yl)-1,3-dioxoisoindolin-4-yl)amino)ethoxy)ethyl)-2-fluoro-5-methoxybenzamide]",≤ 500,60 to 80

# Next, values leading:
DC50 [nM],Dmax [%],SMILES
≤ 50,≥ 80,"COc1cc(C(=O)NCCOCCOCCNc2cccc3c2C(=O)N(C2CCC(=O)NC2=O)C3=O)c(F)cc1Nc1ncc2c(n1)N(C1CCCC1)CC(F)(F)C(=O)N2C (stereo not drawn) [Compound 152, 4-((9-cyclopentyl-7,7-difluoro-5-methyl-6-oxo-6,7,8,9-tetrahydro-5H-pyrimido[4,5-b][1,4]diazepin-2-yl)amino)-N-(2-(2-(2-((2-(2,6-dioxopiperidin-3-yl)-1,3-dioxoisoindolin-4-yl)amino)ethoxy)ethoxy)ethyl)-2-fluoro-5-methoxybenzamide]"
≤ 50,≥ 80,"COc1cc(C(=O)NCCOCCOCCOCCNc2cccc3c2C(=O)N(C2CCC(=O)NC2=O)C3=O)c(F)cc1Nc1ncc2c(n1)N(C1CCCC1)CC(F)(F)C(=O)N2C (stereo not drawn) [Compound 153, 4-((9-cyclopentyl-7,7-difluoro-5-methyl-6-oxo-6,7,8,9-tetrahydro-5H-pyrimido[4,5-b][1,4]diazepin-2-yl)amino)-N-(2-(2-(2-(2-((2-(2,6-dioxopiperidin-3-yl)-1,3-dioxoisoindolin-4-yl)amino)ethoxy)ethoxy)ethoxy)ethyl)-2-fluoro-5-methoxybenzamide]"
–,< 60,"COc1cc(C(=O)NCCCCCCCCNc2cccc3c2C(=O)N(C2CCC(=O)NC2=O)C3=O)c(F)cc1Nc1ncc2c(n1)N(C1CCCC1)CC(F)(F)C(=O)N2C (stereo not drawn) [Compound 154, 4-((9-cyclopentyl-7,7-difluoro-5-methyl-6-oxo-6,7,8,9-tetrahydro-5H-pyrimido[4,5-b][1,4]diazepin-2-yl)amino)-N-(8-((2-(2,6-dioxopiperidin-3-yl)-1,3-dioxoisoindolin-4-yl)amino)octyl)-2-fluoro-5-methoxybenzamide]"
≤ 500,60 to 80,"COc1cc(C(=O)NCCOCCCNc2cccc3c2C(=O)N(C2CCC(=O)NC2=O)C3=O)c(F)cc1Nc1ncc2c(n1)N(C1CCCC1)CC(F)(F)C(=O)N2C (stereo not drawn) [Compound 155, 4-((9-cyclopentyl-7,7-difluoro-5-methyl-6-oxo-6,7,8,9-tetrahydro-5H-pyrimido[4,5-b][1,4]diazepin-2-yl)amino)-N-(2-(3-((2-(2,6-dioxopiperidin-3-yl)-1,3-dioxoisoindolin-4-yl)amino)propoxy)ethyl)-2-fluoro-5-methoxybenzamide]"
≤ 50,≥ 80,"COc1cc(C(=O)NCCOCCCOCCNc2cccc3c2C(=O)N(C2CCC(=O)NC2=O)C3=O)c(F)cc1Nc1ncc2c(n1)N(C1CCCC1)CC(F)(F)C(=O)N2C (stereo not drawn) [Compound 156, 4-((9-cyclopentyl-7,7-difluoro-5-methyl-6-oxo-6,7,8,9-tetrahydro-5H-pyrimido[4,5-b][1,4]diazepin-2-yl)amino)-N-(2-(3-(2-((2-(2,6-dioxopiperidin-3-yl)-1,3-dioxoisoindolin-4-yl)amino)ethoxy)propoxy)ethyl)-2-fluoro-5-methoxybenzamide]"
≤ 50,≥ 80,"COc1cc(C(=O)NCCCOCCCOCCNc2cccc3c2C(=O)N(C2CCC(=O)NC2=O)C3=O)c(F)cc1Nc1ncc2c(n1)N(C1CCCC1)CC(F)(F)C(=O)N2C (stereo not drawn) [Compound 157, 4-((9-cyclopentyl-7,7-difluoro-5-methyl-6-oxo-6,7,8,9-tetrahydro-5H-pyrimido[4,5-b][1,4]diazepin-2-yl)amino)-N-(3-(3-(2-((2-(2,6-dioxopiperidin-3-yl)-1,3-dioxoisoindolin-4-yl)amino)ethoxy)propoxy)propyl)-2-fluoro-5-methoxybenzamide]"
≤ 500,60 to 80,"COc1cc(C(=O)NCCCCCCCC(=O)Nc2cccc3c2C(=O)N(C2CCC(=O)NC2=O)C3=O)c(F)cc1Nc1ncc2c(n1)N(C1CCCC1)CC(F)(F)C(=O)N2C (stereo not drawn) [Compound 158, 4-((9-cyclopentyl-7,7-difluoro-5-methyl-6-oxo-6,7,8,9-tetrahydro-5H-pyrimido[4,5-b][1,4]diazepin-2-yl)amino)-N-(8-((2-(2,6-dioxopiperidin-3-yl)-1,3-dioxoisoindolin-4-yl)amino)-8-oxooctyl)-2-fluoro-5-methoxybenzamide]"
≤ 50,≥ 80,"COc1cc(C(=O)NC2CC3(C2)CN(C(=O)CCNc2cccc4c2C(=O)N(C2CCC(=O)NC2=O)C4=O)C3)c(F)cc1Nc1ncc2c(n1)N(C1CCCC1)CC(F)(F)C(=O)N2C (stereo not drawn) [Compound 159, 4-((9-cyclopentyl-7,7-difluoro-5-methyl-6-oxo-6,7,8,9-tetrahydro-5H-pyrimido[4,5-b][1,4]diazepin-2-yl)amino)-N-(2-(3-((2-(2,6-dioxopiperidin-3-yl)-1,3-dioxoisoindolin-4-yl)amino)propanoyl)-2-azaspiro[3.3]heptan-6-yl)-2-fluoro-5-methoxybenzamide]"
≤ 50,≥ 80,"COc1cc(C(=O)NC2CC3(C2)CN(C(=O)CCCNc2cccc4c2C(=O)N(C2CCC(=O)NC2=O)C4=O)C3)c(F)cc1Nc1ncc2c(n1)N(C1CCCC1)CC(F)(F)C(=O)N2C (stereo not drawn) [Compound 160, 4-((9-cyclopentyl-7,7-difluoro-5-methyl-6-oxo-6,7,8,9-tetrahydro-5H-pyrimido[4,5-b][1,4]diazepin-2-yl)amino)-N-(2-(4-((2-(2,6-dioxopiperidin-3-yl)-1,3-dioxoisoindolin-4-yl)amino)butanoyl)-2-azaspiro[3.3]heptan-6-yl)-2-fluoro-5-methoxybenzamide]"
